Test results published in patent EP4806898A1, “HETEROARYL DERIVATIVE COMPOUND AND USE THEREOF” (Voronoi Inc., priority 2023, dated 2025).

Columns and labels:
recombinant USP1 protein = molecular target: T1, recombinant USP1 protein (Homo sapiens, UniProt O94782, DEL125-138/DEL229-408/DEL608-737); assay: Binding affinity to recombinant USP1 protein by differential scanning fluorimetry; conditions: compound 100 µM; 0.03 mg/mL USP1 (Δ1-66, Δ125-138, Δ229-408, Δ608-737); Tm with compound minus Tm with DMSO; read-out: ΔTm (°C)
T1 sequence (O94782 with tags, fused parts or gaps DEL125-138/DEL229-408/DEL608-737): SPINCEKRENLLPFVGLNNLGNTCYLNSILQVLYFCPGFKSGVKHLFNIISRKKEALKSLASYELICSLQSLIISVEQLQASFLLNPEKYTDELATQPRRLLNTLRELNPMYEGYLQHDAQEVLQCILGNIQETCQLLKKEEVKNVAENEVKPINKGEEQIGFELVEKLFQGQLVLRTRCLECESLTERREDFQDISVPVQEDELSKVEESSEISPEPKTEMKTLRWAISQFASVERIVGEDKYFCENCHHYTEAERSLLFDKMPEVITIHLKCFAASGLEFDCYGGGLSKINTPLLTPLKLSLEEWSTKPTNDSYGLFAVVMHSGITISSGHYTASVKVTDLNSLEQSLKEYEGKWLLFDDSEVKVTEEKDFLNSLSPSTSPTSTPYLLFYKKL
Procedure: <Experimental Example 1> Confirmation and evaluation of the binding affinity to recombinant USP1 protein
To evaluate the binding affinity of the compounds of the present invention to the USP1 protein, the following experiment was performed using differential scanning fluorimetry.
Recombinant 0.03 mg/mL USP1 (Δ1-66, Δ125-138, Δ229-408, Δ608-737) protein, dye reagent, and buffer solution (50 mM Tris-HCl pH 8.0, 150 mM NaCl, 2% glycerol, 1 mM DTT) were mixed and 19 µL of the mixture was dispensed into a well plate (MicroAmp Fast 96-Well Reaction plate, 0.1 mL). Each compound was injected at a final concentration of 100 µM in an amount of 1 µL, and the plate containing a total of 20 µL was sealed with MicroAmp Optical Adhesive Film. The melting temperature (Tm) of the protein in each well was measured using a real-time PCR (RT-PCR) device. The difference between the Tm of the sample containing the compound and the Tm containing DMSO is referred to as delta Tm (ΔTm), where a larger ΔTm value indicates stronger binding affinity. The degree of temperature at which the protein is modified in the presence of the compound compared to DMSO was calculated according to Equation 1 below: [formula]

UWB1.289 cells = assay: Cell proliferation inhibitory activity in BRCA1/2-mutant or HRD-positive cells (Cell Titer-Glo); type: cell-based; conditions: UWB1289; UWB1.289 cells, 144 hours after compound treatment, Cell Titer-Glo, 1.5 nM to 10 µM; read-out: GI50 UWB1.289 BRCA1 mut
Procedure: <Experimental Example 2> Evaluation of Cell Proliferation Inhibitory Activity in BRCA1/2-Mutant or HRD-Positive Cells
To evaluate the inhibitory activity of the compound according to the present invention on the proliferation of BRCA1/2 mutants or homologous recombination deficient (HRD) positive cell lines, the following experiments were performed. UWB1.289 cells were cultured in medium (50% MEBM + 50% RPMI1640), and 1,000 cells were seeded in a well plate (black clear bottom 96-well plate, Corning) 16 to 24 hours prior to compound treatment. The compounds were diluted in dimethyl sulfoxide (3-fold serial dilution starting at 10 µM, for a total of 10 concentrations) and injected at 1 µl per well, resulting a final concentration range of […] to 10 µM. Measurements of live cells were performed by a reaction in a 37 °C and CO2 incubator for 144 hours after compound treatment. The cells were incubated for 10 minutes in an incubator using Cell Titer-Glo luminescent cell-viability reagent (Promega), and luminescence intensity thereof was measured using a reader (SynergyNeo2, Biotek). GI50 values were calculated using the GraphPad Prism version 8.4.3 (GraphPad software Inc., San Diego) program.

SMILES | ΔTm at 100 µM (recombinant USP1 protein) [°C] | GI50 (UWB1.289 cells) [nM]
COc1ncnc(C2CC2)c1-c1ncc2cc(C(=O)N3CC(F)C3)n(Cc3ccc(-c4nc(C(F)(F)F)cn4C(C)C)cc3)c2n1 [Example 101, (2-(4-cyclopropyl-6-methoxypyrimid in-5-yl)-7-(4-(1-isopropyl-4-(trifluoromethyl)-1H-imidazol-2-yl)benzyl)-7H-pyrrolo[2,3-d]pyrimidin-6-yl) (3-fluoroazetidin-1-yl)methanone] | > 5 | 100 to 500
COc1ncnc(C2CC2)c1-c1ncc2cc(C(=O)N[C@@H]3CCN(C4COC4)C[C@@H]3F)n(Cc3ccc(-c4nc(C(F)(F)F)cn4C)cc3)c2n1 [Example 216, 2-(4-cyclopropyl-6-methoxypyrimidin-5-yl)-N-((3S,4R)-3-fluoro-1-(oxetan-3-yl)piperidin-4-yl)-7-(4-(1-methyl-4-(trifluoromethyl)-1H-imidazol-2-yl)benzyl) -7H-pyrrolo[2,3-d]pyrimidine-6-carboxamide] | > 5 | 100 to 500
COc1ncnc(C2CC2)c1-c1ncc2cc(C(=O)N3CC(CS(C)(=O)=O)C3)n(Cc3ccc(-c4nc(C(F)(F)F)cn4C(C)C)cc3)c2n1 [Example 75, (2-(4-cyclopropyl-6-methoxypyrimid in-5-yl)-7-(4-(1-isopropyl-4-(trifluoromethyl)-1H-imidazol-2-yl)benzyl)-7H-pyrrolo[2,3-d]pyrimidin-6-yl) (3-((methylsulfonyl)methyl)azetidin-1-yl)methanone] | > 5 | 100 to 500
COc1ncnc(C2CC2)c1-c1ncc2cc(C(=O)NC3(C)CC(F)(F)C3)n(Cc3ccc(-c4nc(C(F)(F)F)cn4C(C)C)cc3)c2n1 [Example 116, 2-(4-cyclopropyl-6-methoxypyrimidin-5-yl)-N-(3,3-difluoro-1-methylcyclobutyl)-7-(4-(1-isopropyl-4-(trifluoromethyl)-1H-imidazol-2-yl)benzyl)-7H-pyrrolo[2,3-d]pyrimidine-6-carboxamide] | > 5 | < 100
[2H]C([2H])([2H])n1cc(C(F)(F)F)nc1-c1ccc(Cn2c(C(=O)NC)cc3cnc(-c4c(OC)ncnc4C4CC4)nc32)cc1 [Example 183, 2-(4-cyclopropyl-6-methoxypyrimidin-5-yl)-N-methyl-7-(4-(1-(methyl-d3)-4-(trifluoromethyl)-1H-imidazol-2-yl)benzyl)-7H-pyrrolo[2,3-d]pyrimidine-6-carboxamide] | > 5 | < 100
COc1ncnc(C2CC2)c1-c1ncc2cc(C(=O)N[C@H]3C[C@@H](OC)C3)n(Cc3ccc(-c4nc(C(F)(F)F)cn4C(C)C)cc3)c2n1 [Example 131, 2-(4-cyclopropyl-6-methoxypyrimidin-5-yl)-7-(4-(1-isopropyl-4-(trifluoromethyl)-1H-imidazol-2-yl)benzyl)-N-((1s,3s)-3-methoxycyclobutyl)-7H-pyrrolo[2,3-d]pyrimidine-6-carboxamide] | > 5 | < 100
COc1ncnc(C2CC2)c1-c1ncc2cc(C(=O)N3CCC4(CC3)CNCCO4)n(Cc3ccc(-c4nc(C(F)(F)F)cn4C(C)C)cc3)c2n1 [Example 94, (2-(4-cyclopropyl-6-methoxypyrimid in-5-yl)-7-(4-(1-isopropyl-4-(trifluoromethyl)-1H-imidazol-2-yl)benzyl)-7H-pyrrolo[2,3-d]pyrimidin-6-yl)(1-oxa-4,9-diazaspiro[5.5]undecan-9-yl)methanone] | > 5 | 100 to 500

Second part, led by results:

ΔTm at 100 µM (recombinant USP1 protein) [°C] | SMILES | GI50 (UWB1.289 cells) [nM]
> 5 | COc1ncnc(C2CC2)c1-c1ncc2cc(C(=O)N3CCC3)n(Cc3ccc(-c4nc(C(F)(F)F)cn4C(C)C)cc3)c2n1 [Example 18, azetidin-1-yl(2-(4-cyclopropyl-6-methoxypyrimidin-5-yl)-7-(4-(1-isopropyl-4-(trifluoromethyl)-1H-imidazol-2-yl)benzyl)-7H-pyrrolo[2,3-d]pyrimidin-6-yl)methanone] | < 100
> 5 | COc1ncnc(C2CC2)c1-c1ncc2cc(C(=O)NCC(C)(C)O)n(Cc3ccc(-c4nc(C(F)(F)F)cn4C(C)C)cc3)c2n1 [Example 61, 2-(4-cyclopropyl-6-methoxypyrimidin-5-yl)-N-(2-hydroxy-2-methylpropyl)-7-(4-(1-isopropyl-4-(trifluoromethyl)-1H-imidazol-2-yl)benzyl)-7H-pyrrolo[2,3-d]pyrimidine-6-carboxamide] | < 100
> 5 | COc1ncnc(C2CC2)c1-c1ncc2cc(C(=O)N[C@H](C)CCO)n(Cc3ccc(-c4nc(C(F)(F)F)cn4C(C)C)cc3)c2n1 [Example 83, (R)-2-(4-cyclopropyl-6-methoxypyrimidin-5-yl)-N-(4-hydroxybutan-2-yl)-7-(4-(1-isopropyl-4-(trifluoromethyl)-1H-imidazol-2-yl)benzyl)-7H-pyrrolo[2,3-d]pyrimidine-6-carboxamide] | < 100
> 5 | COc1ncnc(C2CC2)c1-c1ncc2cc(C(=O)NC3CCN(C4CC4)CC3)n(Cc3ccc(-c4nc(C(F)(F)F)cn4C(C)C)cc3)c2n1 [Example 121, 2-(4-cyclopropyl-6-methoxypyrimidin-5-yl)-N-(1-cyclopropylpiperidin-4-yl)-7-(4-(1-isopropyl-4-(trifluoromethyl)-1H-imidazol-2-yl)benzyl)-7H-pyrrolo[2,3-d]pyrimidine-6-carboxamide] | < 100
> 5 | CNC(=O)c1cc2cnc(-c3c(Cl)cnn3C)nc2n1Cc1ccc(-c2nc(C(F)(F)F)cn2C)cc1 [Example 186, 2-(4-chloro-1-methyl-1H-pyrazol-5-yl)-N-methyl-7-(4-(1-methyl-4-(trifluoromethyl)-1H-imidazol-2-yl)benzyl)-7H-pyrrolo[2,3-d]pyrimidine-6-carboxamide] | < 100
> 5 | CNC(=O)c1cc2cnc(-c3c(OC)ncnc3C3CC3)nc2n1Cc1ccc(-c2nc(C(F)(F)F)cn2[C@@H]2CCN(C)C[C@H]2F)cc1 [Example 187, 2-(4-cyclopropyl-6-methoxypyrimidin-5-yl)-7-(4-(1-((3R,4R)-3-fluoro-1-methylpiperidin-4-yl)-4-(trifluoromethyl)-1H-imidazol-2-yl)benzyl)-N-methyl-7H-pyrrolo[2,3-d]pyrimidine-6-carboxamide] | < 100
> 5 | COc1ncnc(C2CC2)c1-c1ncc2cc(C(=O)NCCN3CCCC3)n(Cc3ccc(-c4nc(C(F)(F)F)cn4C(C)C)cc3)c2n1 [Example 47, 2-(4-cyclopropyl-6-methoxypyrimidin-5-yl)-7-(4-(1-isopropyl-4-(trifluoromethyl)-1H-imidazol-2-yl)benzyl)-N-(2-(pyrrolidin-1-yl)ethyl)-7H-pyrrolo[2,3-d]pyrimidine-6-carboxamide] | < 100
> 5 | COc1ncnc(C2CC2)c1-c1ncc2cc(C(=O)N(C)CC(F)(F)F)n(Cc3ccc(-c4nc(C(F)(F)F)cn4C(C)C)cc3)c2n1 [Example 70, 2-(4-cyclopropyl-6-methoxypyrimidin-5-yl)-7-(4-(1-isopropyl-4-(trifluoromethyl)-1H-imidazol-2-yl)benzyl)-N-methyl-N-(2,2,2-trifluoroethyl)-7H-pyrrolo[2,3-d]pyrimidine-6-carboxamide] | 100 to 500
> 5 | COc1ncnc(C2CC2)c1-c1ncc2cc(C(=O)NCC3(F)COC3)n(Cc3ccc(-c4nc(C(F)(F)F)cn4C(C)C)cc3)c2n1 [Example 142, 2-(4-cyclopropyl-6-methoxypyrimidin-5-yl)-N-((3-fluorooxetan-3-yl)methyl)-7-(4-(1-isopropyl-4-(trifluoromethyl)-1H-imidazol-2-yl)benzyl)-7H-pyrrolo[2,3-d]pyrimidine-6-carboxamide] | < 100
